Our source for the IC50 values is US6794380B2, “Amide derivatives” (AstraZeneca AB, priority 1999, dated 2004).

In one test the target is T1, p38α (Homo sapiens, UniProt Q16539).
T1 construct: c-myc (N); 6His (N); made in house; host or cells: E. coli (PET vectors)
As to the kind of experiment: In vitro enzyme assay, p38α. The test is classed as biochemical. To be noted: read-out: IC50 against p38α. As to the method: The ability of compounds of the invention to inhibit the enzyme p38 kinase was assessed. Activity of test compounds against each of the p38α and p38β isoforms of the enzyme was determined. […]
Test compounds were solubilised in DMSO and 10 μl of a 1:10 diluted sample in ‘Kinase Buffer’ was added to a well in a Microtiter plate. […] The precipitated protein was phosphorylated by p38 kinase and test compounds were assessed for their ability to inhibit this phosphorylation. The plates were filtered using a Canberra Packard Unifilter and washed with 2% TCA, dried overnight and counted on a Top Count scintillation counter.
Test compounds were tested initially at a single dose and active compounds were retested to allow IC50 values to be determined.

Test [1] concerns TNFα production in human whole blood. As to the kind of experiment: Human Whole Blood test: inhibition of LPS-stimulated TNFα production. The class given is cell-based. As to the method:
The ability of the compounds of this invention to inhibit TNFα production was also assessed in a human whole blood assay. Human whole blood secretes TNFα when stimulated with LPS. This property of blood forms the basis of an assay which is used as a secondary test for compounds which profile as active in the PBMC test.
Heparinised (10 units/ml) human blood was obtained from volunteers. 160 μl whole blood were added to 96 well round-bottom plates (Corning 25850). Compounds were solubilised and serially diluted in RPMI 1640 medium (Gibco) supplemented with 50 units/ml penicillin, 50 μg/ml streptomycin and 2 mM glutamine, as detailed above. 20 μl of each test concentration was added to appropriate wells (triplicate cultures). 20 μl of RPMI 1640 medium supplemented with antibiotics and glutamine was added to control wells. Plates were incubated for 30 minutes at 37° C. (humidified incubator), prior to addition of 20 μl LPS (final concentration 10 μg/ml). RPMI 1640 medium was added to control wells. Six “LPS alone” and four “medium alone” controls were included on each plate. A known TNFα synthesis/secretion inhibitor was included in each test. Plates were incubated for 6 hours at 37° C. (humidified incubator). […] TNFα levels were measured by ELISA (see WO92/10190 and Current Protocols in Molecular Biology, vol 2 by Frederick M. Ausbel et al., John Wiley and Sons Inc.). […]

T1 sequence (Q16539 whole entry): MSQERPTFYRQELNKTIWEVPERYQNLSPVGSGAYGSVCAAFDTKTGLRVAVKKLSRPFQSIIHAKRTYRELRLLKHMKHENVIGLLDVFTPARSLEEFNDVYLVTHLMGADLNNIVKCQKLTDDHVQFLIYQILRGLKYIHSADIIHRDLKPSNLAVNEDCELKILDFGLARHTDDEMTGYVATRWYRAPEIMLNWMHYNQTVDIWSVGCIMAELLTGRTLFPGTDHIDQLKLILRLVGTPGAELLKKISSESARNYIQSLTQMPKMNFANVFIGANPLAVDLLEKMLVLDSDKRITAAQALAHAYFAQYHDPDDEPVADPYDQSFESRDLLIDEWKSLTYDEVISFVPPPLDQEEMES

`CN(C)CCCN(C)c1ccc(NC(=O)c2cc(NC(=O)c3ccnc(N4CCOCC4)c3)ccc2Cl)cn1` [N-{6-[N-(3-dimethylaminopropyl)-N-methylamino]pyrid-3-yl}-2-chloro-5-(2-morpholinopyrid-4-ylcarbonylamino)benzamide]: the IC50 on p38α was about 0.05 µM; in test [1] it was about 5 µM.

Usually IC50 stands for the midpoint of a concentration-inhibition curve.
